Records with an inconclusive call do not appear. The source made the active and inactive calls. How the calls were made is not given here. *1 amine or outer side, *2 acyl side, *3 side chain or, on linkers, in order; H or OH if unused. Where a SMILES comes first, the peptide text is derived from it. Bridges are numbered along the chain shown (N, C = ends). Roman numbers before positions name the chains, in order. [ ]: non-standard residue; d: D form. Actinocin(9to1) = Cc1c2oc3c(C)ccc(C(=O)[*:1])c3nc-2c(C(=O)[*:2])c(N)c1=O; NMeV = CN[C@H](C(=O)O)C(C)C; Sar = CNCC(=O)O
The compounds below were run on mouse/rat in vivo micronucleus assay, summary call (assay: In vivo micronucleus assay summary data).
Source text: The erythrocyte micronucleus test examines the ability of substances to cause chromosome damage in developing red blood cells inside bone marrow. A micronucleus (literally, "little nucleus") is a biomarker of structural chromosome damage (e.g., breaks) and changes in chromosome number (e.g., chromosome loss). If a chromosome is broken or fails to migrate properly with other chromosomes during cell division, the broken piece or lost chromosome will form a small (micro) nucleus of its own in one of the two daughter cells produced. Detection of chromosomal damage is important because it has been linked to birth defects, infertility, and certain diseases, including cancer.
The micronucleus test is performed in rapidly dividing cell populations, and bone marrow is a site of rapid blood cell division. Both bone marrow and peripheral blood samples can be examined for the presence of micronuclei in red blood cells.
Animals are treated with a test substance once or daily over a period of time, and the frequency of micronucleated cells is determined 24-48 hours after the final treatment, depending on the source of the cells (bone marrow or blood) that are examined and the treatment regimen.
The test subjects are rodents (rats or mice) that are exposed to the test substance, usually by oral gavage or injection. Typically, one to three daily treatments of the test substance are administered over a range of doses; the highest dose tested is near the maximum tolerated dose. Groups of negative and positive control animals are included for each test. Bone marrow samples are obtained from all animals 24 hours after the last treatment, and red blood cells are examined for the presence of micronuclei.
B. Peripheral Blood Tests
Micronucleus tests are performed on male and female rodents that are exposed to the test substance orally, dermally, or by inhalation in subchronic (e.g., 28 or 90 days) or short term (e.g., 48-72 hours) toxicity studies. 24 to 48 hours after the final exposure, peripheral blood samples are obtained and red blood cells are examined for the presence of micronuclei. Samples may be examined using standard slide scoring procedures or automated flow cytometric approaches. Since 2007, NTP has routinely relied on flow cytometry to evaluate the frequency of micronucleated cells in peripheral blood.
Peripheral blood micronucleus assays are typically integrated into all NTP toxicity studies, and they also lend themselves to serial monitoring of micronucleus frequencies over time, since blood samples can be obtained without the need to sacrifice the animals.
Blood or bone marrow samples from treated animals are compared to samples from untreated animals. With the slide-based approach for data acquisition, 1000-2000 cells were scored per animal. Using flow cytometric procedures to evaluate blood samples, 20,000 immature red blood cells and around one million mature red blood cells are examined per animal, resulting in a marked increase in the ability to detect small changes in the frequency of micronucleated red blood cells. The data is analyzed using statistical methods to determine if there is a significant increase in the frequency of cells containing micronuclei. Both dose-related responses and the magnitude of response for each independent dose group are considered during the evaluation of the data. For a positive test, both a significant dose response (trend) and at least one significant dose group are required. If only one of these measures is present, the test is determined to be questionable. The absence of either condition results in a negative test. The final conclusions for micronucleus tests are determined by considering the results of statistical analyses, reproducibility of any observed effects, and the magnitude of the effects. Ultimately, both the biological significance as well as statistical significance is considered when reaching a final conclusion.
[…]
With `Cc1ccccc1N` the outcome was “active; negative”. For `O=C1OC(c2ccc(O)cc2)(c2ccc(O)cc2)c2ccccc21`, the outcome was “active; positive”. `[O]=[Sb][O][Sb]=[O]` was tested, and the outcome was “active; positive”. For `CC(=O)CC(C)=O`, the outcome was “active; positive”. In the case of `Oc1ccccc1`, the outcome was “active; positive”. With `COC(=O)c1ccccc1C(=O)OC` the outcome was “inactive; negative”. In the case of `O=[N+]([O-])C(Br)=Cc1ccccc1`, the outcome was “active; positive”. For `COC(=O)C(c1ccccc1)C1CCCCN1` (stereo unspecified), the outcome was “inactive; negative”. In the case of `OCC1CO1` (stereo unspecified), the outcome was “active; positive”. With `[O]=[Cr](=[O])([OH])[O][Cr](=[O])(=[O])[OH]` the outcome was “active; positive”. With `ClC(Cl)C(Cl)Cl` the outcome was “active; positive”. In the case of `C=CCO`, the outcome was “inactive; negative”. With `CC/C(=C(/CC)c1ccc(O)cc1)c1ccc(O)cc1` the outcome was “active; positive”. With `CC(C)c1ccccc1` the outcome was “active; negative”. With `OCc1c[nH]c2ccccc12` the outcome was “inactive; negative”. For `Nc1ccc(Oc2ccc(N)cc2)cc1`, the outcome was “active; positive”. `C=C(C)c1ccccc1` was tested, and the outcome was “active; positive”. In the case of `CC(=O)C1(C)CC2=C(CCCC2(C)C)CC1C` (stereo unspecified), the outcome was “active; positive”. With `C1CCC2CCCCC2C1` (stereo unspecified) the outcome was “active; weakly positive”. For `CC(C)(C)O`, the outcome was “inactive; negative”. For `O=C(O)C(Cl)Cl`, the outcome was “active; positive”. `S=c1[nH]c2ccccc2s1` was tested, and the outcome was “inactive; negative”. `O=C(O)CCCc1ccc(N(CCCl)CCCl)cc1` was tested, and the outcome was “active; positive”. `Brc1c(Br)c(Br)c(Oc2c(Br)c(Br)c(Br)c(Br)c2Br)c(Br)c1Br` was tested, and the outcome was “active”. For `CCCC=NO`, the outcome was “active; positive”. For `CC[n+]1c(-c2ccccc2)c2cc(N)ccc2c2ccc(N)cc21`, the outcome was “inactive; negative”. With `C[C@]12CC[C@@H]3c4ccc(O)cc4CC[C@H]3[C@@H]1CC[C@@H]2O` the outcome was “inactive; negative”. For `C=CCOCC1CO1` (stereo unspecified), the outcome was “active; positive”. `C=COC(C)=O` was tested, and the outcome was “active”. For `CN(C)CCC(c1ccc(Cl)cc1)c1ccccn1` (stereo unspecified), the outcome was “inactive; negative”. With `O=S(=O)(O)C(F)(F)C(F)(F)C(F)(F)C(F)(F)C(F)(F)C(F)(F)C(F)(F)C(F)(F)F` the outcome was “active”. For `C=CC(=O)NCNC(=O)C=C`, the outcome was “active; positive”. With `CC(C)N=C=NC(C)C` the outcome was “active; positive”. For `Nc1ncnc2c1ncn2[C@H]1CC[C@@H](CO)O1`, the outcome was “active; positive”. In the case of `CN(N=O)C(N)=O`, the outcome was “active; positive”. In the case of `Nc1nc(=S)c2[nH]cnc2[nH]1`, the outcome was “active; positive”. With `Cc1c2oc3c(C)ccc(C(=O)N[C@@H]4C(=O)N[C@H](C(C)C)C(=O)N5CCC[C@H]5C(=O)N(C)CC(=O)N(C)[C@@H](C(C)C)C(=O)O[C@@H]4C)c3nc-2c(C(=O)N[C@@H]2C(=O)N[C@H](C(C)C)C(=O)N3CCC[C@H]3C(=O)N(C)CC(=O)N(C)[C@@H](C(C)C)C(=O)O[C@@H]2C)c(N)c1=O` (I: T[dV]P[Sar][NMeV] / II: T[dV]P[Sar][NMeV]; ester I:1-I:C, II:1-II:C; linker I:N-II:N via Actinocin(9to1)) the outcome was “active; positive”. For `Nc1ccc(Cc2ccc(N)cc2)cc1`, the outcome was “active; positive (nonstandard protocol)”. With `Cc1ccc(S(N)(=O)=O)cc1` the outcome was “inactive; negative”. For `Nc1ccc(Cl)cc1N`, the outcome was “active; positive”. For `Nc1ncn([C@@H]2O[C@H](CO)[C@@H](O)[C@H]2O)c(=O)n1`, the outcome was “active; positive”. For `Nc1ccn([C@@H]2O[C@H](CO)[C@@H](O)[C@@H]2O)c(=O)n1`, the outcome was “active; positive”. With `Nc1ccc(S(=O)(=O)Nc2ccccn2)cc1` the outcome was “active; positive”. With `CC1=CC(=O)NS(=O)(=O)O1` the outcome was “active; positive”. In the case of `Clc1ccc(N=Nc2ccc(Cl)c(Cl)c2)cc1Cl`, the outcome was “active; positive”. In the case of `Nc1cccc(Cl)c1`, the outcome was “inactive; negative”. `C=CC(N)=O` was tested, and the outcome was “active; positive”. `CCOC(N)=O` was tested, and the outcome was “active; positive”. With `C=CC(=O)CC` the outcome was “inactive; negative”. `CCCCOCCO` was tested, and the outcome was “inactive; negative”. In the case of `CCCC[N+]1(C)CCCC1`, the outcome was “active; negative”. `C=CC(=O)OCC(CO)(COC(=O)C=C)COC(=O)C=C` was tested, and the outcome was “active; positive”. For `C=CC(=O)NCCNC(=O)C=C`, the outcome was “active; positive (nonstandard protocol)”. `Cc1ccc([N+](=O)[O-])cc1` was tested, and the outcome was “inactive; negative”. With `Nc1ccccc1` the outcome was “active; positive”. `Cc1c(N)cccc1N` was tested, and the outcome was “active; positive”. In the case of `O=C(O)C(Br)Br`, the outcome was “active; positive”. In the case of `CC(C)=CCl`, the outcome was “active; positive”. With `Oc1c(Cl)c(Cl)c(Cl)c(Cl)c1Cl` the outcome was “inactive; negative”. With `Nc1ccccc1Cl` the outcome was “active; negative”. For `c1ccc(N=NNc2ccccc2)cc1`, the outcome was “active; positive”. With `NC(=O)NO` the outcome was “active; positive”. In the case of `CCn1cc[n+](C)c1`, the outcome was “inactive; negative”. `C=CCOC(C)=O` was tested, and the outcome was “active; weakly positive”. For `O=C(O)C(F)(F)C(F)(F)C(F)(F)C(F)(F)C(F)(F)C(F)(F)C(F)(F)F`, the outcome was “active”. With `Nc1nc(=O)n([C@@H]2CS[C@H](CO)O2)cc1F` the outcome was “active; positive”. `CCOC(C)(C)C` was tested, and the outcome was “inactive; negative”. With `O=CC=CC=Cc1ccc([N+](=O)[O-])cc1` the outcome was “active; positive (nonstandard protocol)”. With `CN(C)c1ccc(C(=C2C=CC(=[N+](C)C)C=C2)c2ccccc2)cc1` the outcome was “inactive; negative”. With `C[N+](C)(C)Cc1ccccc1` the outcome was “active; positive”. For `Cc1cnc[nH]1`, the outcome was “inactive; negative”. In the case of `C=CC=C`, the outcome was “active; positive (nonstandard protocol)”. In the case of `COc1ccc2nc(N)sc2c1`, the outcome was “active; positive”. With `Oc1cccc(O)c1` the outcome was “active; positive”. `Nc1ccn([C@H]2CC[C@@H](CO)O2)c(=O)n1` was tested, and the outcome was “active; positive”. With `O=S(=O)([O-])[O-].[O]=[V+2]` the outcome was “inactive; negative”. In the case of `O=S1(=O)CCCC1`, the outcome was “inactive; negative”. In the case of `Cn1c(=O)c2[nH]cnc2n(C)c1=O`, the outcome was “active; positive”. In the case of `C1CN1c1nc(N2CC2)nc(N2CC2)n1`, the outcome was “active; positive”. In the case of `CCCOC(=O)c1cc(O)c(O)c(O)c1`, the outcome was “active; positive”. For `c12c3c4c5c1c1c6c7c2c2c8c3c3c9c4c4c%10c5c5c1c1c6c6c%11c7c2c2c7c8c3c3c8c9c4c4c9c%10c5c5c1c1c6c6c%11c2c2c7c3c3c8c4c4c9c5c1c1c6c2c3c41`, the outcome was “inactive; negative”. In the case of `CCC(=O)C(C)=O`, the outcome was “inactive; negative”. `CC(C)CON=O` was tested, and the outcome was “active; positive”. For `C[C@H](Cn1cnc2c(N)ncnc21)OCP(=O)(O)O`, the outcome was “active; positive”. With `ClCCOCOCCCl` the outcome was “inactive; negative”. `CCCCCCc1ccc(O)cc1O` was tested, and the outcome was “active; positive”. In the case of `CC(=O)C(C)=O`, the outcome was “inactive; negative”. For `O=C1C=CCCC1`, the outcome was “inactive; negative”. In the case of `O=C(O)c1cc(N=Nc2ccc(S(=O)(=O)Nc3ccccn3)cc2)ccc1O`, the outcome was “active; positive”. With `ClC=CCCl` the outcome was “active; positive”. `N[C@@H](Cc1ccc(N(CCCl)CCCl)cc1)C(=O)O` was tested, and the outcome was “active; positive”. In the case of `O=P1(N(CCCl)CCCl)NCCCO1` (stereo unspecified), the outcome was “active; positive”. For `COc1cccc2c1C(=O)c1c(O)c3c(c(O)c1C2=O)C[C@@](O)(C(=O)CO)C[C@@H]3O[C@H]1C[C@H](N)[C@H](O)[C@H](C)O1`, the outcome was “active; positive”. For `CO[C@@]12[C@H](COC(N)=O)C3=C(C(=O)C(C)=C(N)C3=O)N1C[C@@H]1N[C@@H]12`, the outcome was “active; positive”. `CC(CCl)OP(=O)(OC(C)CCl)OC(C)CCl` (stereo unspecified) was tested, and the outcome was “active; positive”. In the case of `Cc1cc(O)c2c(c1)C(=O)c1cc(O)cc(O)c1C2=O`, the outcome was “active; positive”. For `Nc1cc([N+](=O)[O-])ccc1O`, the outcome was “inactive; negative”. `CC#N` was tested, and the outcome was “active; positive”. With `CC(=O)C(C)O` (stereo unspecified) the outcome was “inactive; negative”. `Oc1ccc(/C=C/c2cc(O)cc(O)c2)cc1` was tested, and the outcome was “inactive; negative”. In the case of `CCCCC(CC)COC(=O)c1ccccc1C(=O)OCC(CC)CCCC` (stereo unspecified), the outcome was “active; positive”.
